Experimental data: US12590322B2, “Devices and methods for mitochondria replacement and for generating cellular therapeutics” (NanoCav, LLC, priority 2018, dated 2026)

Key:
[1] = test system: BJ cells; test: mtDNA depletion by ddC in BJ primary fibroblasts, qPCR verification; assay type: cell-based, human; details: for mtDNA levels, % of initial untreated levels: 2.5 μM or 5 μM ddC
Experimental: FIGS. 11A-11B show generation of mtDNA depleted primary fibroblast lines in BJ cells. FIG. 11A is a bar chart showing that a minimum concentration of 2.5 μM of 2′,3′ dideoxycytidine (ddC), a reverse transcriptase inhibitor, was required to deplete mtDNA to below 5% of the original level, three weeks from initiation of treatment. […] FIG. 11B is a line plot showing the information of FIG. 11A.
(§1) A 1000× stock of 2′,3′-dideoxycytidine (ddC, Sigma, Cat. #D5782) was prepared in water. BJ, ADF, and NDF cells cultured in complete media with 50 µg/ml uridine were added ddC to an appropriate final concentration. Cells were passaged every 3-4 d and fresh ddC was added over the course of 3 weeks. After ddC treatment, total DNA was extracted (Qiagen, Cat. #69504) and mtDNA quantified using SYBR Select Master Mix for CFX (Life Technologies, Cat. #4472942). mtDNA-encoded ND1 was probed with the following primers: forward: […] (SEQ ID NO: 1); reverse: […] (SEQ ID NO: 2). mtDNA levels were normalized to nuclear-encoded GAPDH using the following primers: forward: […] (SEQ ID NO: 3); reverse: […] (SEQ ID NO: 4). qPCR was run on a BioRad CFX Thermal Cycler using the following protocol: 1) 50° C. for 2 min, 2) 95° C. for 2 min, 3) 40 cycles-95° C. for 10 s and 60° C. for 45 s. Samples were compared by calculating ΔΔCT and fold differences.

[2] = test system: Adult and neonatal human dermal fibroblast (HDF) cells; test: mtDNA depletion by ddC in human dermal fibroblasts; assay type: cell-based; details: 5 μM ddC, after sixteen days
Excerpt: FIGS. 12A-12C show generation of mtDNA depleted human dermal fibroblasts cells. […] 143 Rho Null (lacking mtDNA) and a control are also shown. […] GAPDH expression, used as a reference gene, was also shown in adult and neonatal human dermal fibroblast (HDF) cells. FIG. 12B is a table showing depletion of mtDNA in HDF adult and HDF neonatal cells at days sixteen and thirty. FIG. 12C is a line plot showing the data of FIG. 12B.
as §1

[3] = test system: BJs; test: Mutation signature comparison of ddC-treated BJs vs BJ parent, 30X whole genome sequencing; assay type: cell-based, human; details: for # SNVs / % of Total: 5 μM ddC treated BJs vs BJ parent
Experimental: A comparison of mutation signatures between 5 μM-ddC treated BJs and the BJ parent with 30× whole genome sequencing.

[4] = 5 μM ddC-treated BJs vs. BJ parent
[5] = ddC-treated cells, whole genome sequencing

- Mutation rate [3, 4]: 0.6/MB
- Non-synonymous mutations [3, 4]: 26
- # SNVs ([3]; Signature 5): 2,230
- % of Total ([3]; Signature 5): 42.0%
- # SNVs ([3]; Signature 8): 873
- % of Total ([3]; Signature 8): 16.0%
- # SNVs ([3]; Signature 9): 854
- % of Total ([3]; Signature 9): 16.0%
- # SNVs ([3]; Signature 16): 200
- % of Total ([3]; Signature 16): 4.0%
- # SNVs ([3]; Signature 18): 471
- % of Total ([3]; Signature 18): 9.0%
- abundance of non-synonymous mutations [3, 5]: low abundance
- changes in DNA copy number [3, 5]: no changes in DNA copy number
- chromosomal breaks [3, 5]: no chromosomal breaks
Compound: Nc1ccn([C@H]2CC[C@@H](CO)O2)c(=O)n1 [ddC, 2′,3′-dideoxycytidine]
- mtDNA levels, % of initial untreated levels ([1]; three weeks from initiation of treatment): below 0.5%
- mtDNA levels, % of initial untreated levels ([1]; two weeks): below 2%
- minimum concentration required to deplete mtDNA to below 5% of the original level ([1]; BJ cells, three weeks from initiation of treatment): 2.5 µM
- mtDNA depletion [2]: mtDNA depletion
